From US12064516B2, “Pharmaceutical formulations and uses thereof” (Aldeyra Therapeutics, Inc., priority 2020, dated 2024)
Read-outs that look alike come from different tables or passages of the source.

Assay: Pharmacokinetics of compound I-1 in the dog by intravenous, oral gavage and oral capsule routes
Format: in vivo, beagle dogs
Details: for concentration at 0.083 h / concentration at 0.25 h / concentration at 0.5 h / concentration at 1 h / concentration at 2 h / concentration at 4 h / concentration at 8 h / concentration at 12 h / AUC(0-inf) / AUC(0-t) / C0 / clearance / half-life / Vd: male, beagle, dog, plasma; for concentration at 0.083 h / concentration at 0.25 h / concentration at 0.5 h / concentration at 1 h / concentration at 2 h / concentration at 4 h / concentration at 8 h / concentration at 12 h: read-out: Concentration at time point; for Vd: read-out: Vss
Experimental: A pharmacokinetic study was conducted to compare the bioavailability of capsule and suspension oral formulations vs. an intravenous formulations.
The standard curve was prepared from 1 to 2,000 ng/mL. QC samples were prepared at […]. Dilution QCs were prepared at 10-fold dilution. Deuterated (d6) I-1 (compound 1-7) was used as an internal standard. A 50 μL aliquot of sample was added to 150 μL of cold internal standard in acetonitrile to effect protein precipitation. The resulting supernatants were analyzed by LCMS. Diluted sample data was utilized only for over-the-curve results.
Briefly, 9 male non-naïve beagle dogs were assigned in groups of 3 to 3 dose groups. Group 1 was dosed 3 mg/kg by the intravenous route in a vehicle of 20% sulfobutylether-β-cyclodextrin (SBECD). Group 2 was dosed 10 mg/kg by the oral gavage route in a vehicle of 0.5% methylcellulose (MC). Group 3 was dosed with 100 mg capsules.
The I-1 100 mg capsules are manufactured as a non-sterile spray dried, granulated powder blend. The blend is then filled into capsules for oral delivery. The capsules are packaged in high-density polyethylene bottles. The quantitative composition of the I-1 100 mg capsule is presented above in Table B.
Procedure: (PO) gavage: formulations will be administered via a rubber oral gavage tube followed by a 10 mL flush with drinking water. (PO) tablet: tablets will be administered orally by placing the tablet in the back of the throat followed by a 10 mL flush with water.
Frequency: Pre-dose, 5, 15, 30 min, 1, 2, 4, 8, and 12 hrs post-dose (IV); pre-dose, 15, 30 min, 1, 2, 4, 8, and 12 hrs post-dose (PO by gavage and PO by capsule).
Blood collection: each blood sample will be collected from the dog's jugular vein or other accessible vein via direct venepuncture, placed into a pre-labeled tube containing K2EDTA and kept on ice until centrifugation.
Plasma preparation and storage: Certifuged at 4 C at 3,000× for 5 mm. Stored in a freezer until analysed.
Pharmacokinetics package PKSolver2.0™ has been validated against WinNonLin™ as a tool for non-GLP studies and was used to process the pharmacokinetic data.
For each route, the average data were processed with non-compartmental, one compartment, and two compartment models. The models were assessed for goodness of fit and the accuracy of the model to assess the biphasic data, with either a) no weighting, b) 1/concentration observed, or c) 1/concentration observed squared. 1/concentration predicted, and 1/concentration predicted squared weightings were also assessed for best fit. […] The zeros were averaged with the 71.5 value for a resulting average of 23.8. For the In Group 2 (PO Gavage) subject 3 experienced 30 mL of emesis, so the dose assigned to that subject was 7.46. In all cases, the subjects were modelled individually, and the individual PK parameters were averaged to provide final parameters.
For group 1 (intravenous) the final model selected was a two compartment model with 1/concentration observed squared weighting.
For group 2 (oral gavage) the final model was a two compartment extravascular model with 1/concentration predicted squared weighting.
For group 3 (oral capsule) the final model was a one compartment extravascular model with a lag time and no weighting. […] The body weight of each animal was used to assign a mg/kg dose to each individual. Subject 1 was dosed at 7.69 mg/kg. Subject 2 was 6.94 mg/kg, and Subject 3 was 6.99 mg/kg.

[1] = iv, 3 mg/kg, Group 1: IV 3 mg/kg, Average
[2] = iv, 3 mg/kg, Group 1: IV 3 mg/kg, Subject 1
[3] = iv, 3 mg/kg, Group 1: IV 3 mg/kg, Subject 2
[4] = iv, 3 mg/kg, Group 1: IV 3 mg/kg, Subject 3
[5] = iv, 3 mg/kg, Intravenous - 3 mg/kg, Average
[6] = iv, 3 mg/kg, Intravenous - 3 mg/kg, Subj1
[7] = iv, 3 mg/kg, Intravenous - 3 mg/kg, Subj2
[8] = iv, 3 mg/kg, Intravenous - 3 mg/kg, Subj3
[9] = oral, 7 mg/kg, Group 3: PO Capsule 7 mg/kg, Subject 1
[10] = oral, 7 mg/kg, Group 3: PO Capsule 7 mg/kg, Subject 3
[11] = oral, 7 mg/kg, Group 3: PO Capsule 7 mg/kg, Average
[12] = oral, 7 mg/kg, Group 3: PO Capsule 7 mg/kg, Subject 2

CC(C)(O)c1nc2ccccc2cc1N [I-1]
AUC/Dose (100 mg Capsule, average dose 7.2 mg/kg, Average): 1139 ng·h/mL/mg/kg | AUC/Dose (100 mg Capsule, average dose 7.2 mg/kg, Subj1): 955 ng·h/mL/mg/kg | AUC/Dose (100 mg Capsule, average dose 7.2 mg/kg, Subj2): 809 ng·h/mL/mg/kg | AUC/Dose (100 mg Capsule, average dose 7.2 mg/kg, Subj3): 1653 ng·h/mL/mg/kg | AUC/Dose (Intravenous - 3 mg/kg, Average): 1379 | AUC/Dose (Intravenous - 3 mg/kg, Subj1): 1361 | AUC/Dose (Intravenous - 3 mg/kg, Subj2): 1520 | AUC/Dose (Intravenous - 3 mg/kg, Subj3): 1256 | AUC/Dose (Oral Gavage 0.5% Methylcellulose 10 mg/kg, Average): 1038 ng·h/mL/mg/kg | AUC/Dose (Oral Gavage 0.5% Methylcellulose 10 mg/kg, Subj1): 1121 ng·h/mL/mg/kg | AUC/Dose (Oral Gavage 0.5% Methylcellulose 10 mg/kg, Subj2): 1010 ng·h/mL/mg/kg | AUC/Dose (Oral Gavage 0.5% Methylcellulose 10 mg/kg, Subj3 (dose assigned 7.46 after emesis)): 982 ng·h/mL/mg/kg | concentration at 0.083 h [1]: 5080 ng/mL | concentration at 0.083 h [2]: 4910 ng/mL | concentration at 0.083 h [3]: 4900 ng/mL | concentration at 0.083 h [4]: 5430 ng/mL | concentration at 0.25 h [1]: 2410 ng/mL | concentration at 0.25 h [2]: 2780 ng/mL | concentration at 0.25 h [3]: 2300 ng/mL | concentration at 0.25 h [4]: 2150 ng/mL | concentration at 0.5 h [1]: 1660 ng/mL | concentration at 0.5 h [2]: 1720 ng/mL | concentration at 0.5 h [3]: 1700 ng/mL | concentration at 0.5 h [4]: 1570 ng/mL | concentration at 1 h [1]: 951 ng/mL | concentration at 1 h [2]: 857 ng/mL | concentration at 1 h [3]: 908 ng/mL | concentration at 1 h [4]: 1090 ng/mL | concentration at 2 h [1]: 548 ng/mL | concentration at 2 h [2]: 436 ng/mL | concentration at 2 h [3]: 766 ng/mL | concentration at 2 h [4]: 443 ng/mL | concentration at 4 h [1]: 250 ng/mL | concentration at 4 h [2]: 259 ng/mL | concentration at 4 h [3]: 287 ng/mL | concentration at 4 h [4]: 203 ng/mL | concentration at 8 h [1]: 42.5 ng/mL | concentration at 8 h [2]: 49 ng/mL | concentration at 8 h [3]: 55.4 ng/mL | concentration at 8 h [4]: 23.1 ng/mL | concentration at 12 h [1]: 15.5 ng/mL | concentration at 12 h [2]: 23.9 ng/mL | concentration at 12 h [3]: 17 ng/mL | concentration at 12 h [4]: 5.5 ng/mL | AUC(0-inf) [5]: 4140 ng·h/mL | AUC(0-t) [5]: 4100 ng·h/mL | C0 [5]: 6720 ng/mL | clearance [5]: 12.2 mL/min/kg | half-life [5]: 1.82 h | Vd [5]: 1.39 L/kg | AUC(0-inf) [6]: 4080 ng·h/mL | AUC(0-t) [6]: 4030 ng·h/mL | C0 [6]: 5600 ng/mL | clearance [6]: 12.2 mL/min/kg | half-life [6]: 2.2 h | Vd [6]: 1.51 L/kg | AUC(0-inf) [7]: 4560 ng·h/mL | AUC(0-t) [7]: 4520 ng·h/mL | C0 [7]: 6670 ng/mL | clearance [7]: 11 mL/min/kg | half-life [7]: 1.82 h | Vd [7]: 1.4 L/kg | AUC(0-inf) [8]: 3770 ng·h/mL | AUC(0-t) [8]: 3760 ng·h/mL | C0 [8]: 7890 ng/mL | clearance [8]: 13.3 mL/min/kg | half-life [8]: 1.44 h | Vd [8]: 1.25 L/kg | concentration at 0.25 h [9]: 0 ng/mL | concentration at 0.25 h [10]: 0 ng/mL | concentration at 0.5 h [11]: 97.4 ng/mL | concentration at 0.5 h [9]: 1.1 ng/mL | concentration at 0.5 h [12]: 290 ng/mL | concentration at 0.5 h [10]: 1 ng/mL | concentration at 1 h [11]: 137 ng/mL | concentration at 1 h [9]: 24 ng/mL | concentration at 1 h [12]: 254 ng/mL | concentration at 1 h [10]: 134 ng/mL | concentration at 2 h [11]: 2350 ng/mL | concentration at 2 h [9]: 1740 ng/mL | concentration at 2 h [12]: 1320 ng/mL | concentration at 2 h [10]: 3990 ng/mL | concentration at 4 h [11]: 985 ng/mL
